Calls of active or inactive are those of the source. The rule behind the calls is not given here.
Columns and labels:
[1] = Antiproliferative activity against human ALL5 cells assessed as reduction in cell viability incubated for 120 hrs by MTT assay; assay type: functional, cell-based; details: ALL5, 120 h
[2] = Cell cycle arrest in human ALL5 cells assessed as accumulation in S phase at 5 times of antiproliferative IC50 incubated for 72 hrs by propidium iodide based flow cytometry (reference value: 13.5 %); assay type: functional
MCF7 [3] = assay: Cell cycle arrest in human MCF7 cells assessed as accumulation in G1 phase at 5 times of antiproliferative IC50 incubated for 72 hrs by propidium iodide based flow cytometry (reference value: 58 %); assay type: functional
[4] = Cell cycle arrest in human ALL5 cells assessed as accumulation in G2 phase at 5 times of antiproliferative IC50 incubated for 72 hrs by propidium iodide based flow cytometry (reference value: 11.3 %); assay type: functional
[5] = Cell cycle arrest in human ALL5 cells assessed as accumulation in subG1 phase at 5 times of antiproliferative IC50 incubated for 72 hrs by propidium iodide based flow cytometry (reference value: 15.5 %); assay type: functional
LoVo = assay: Antiproliferative activity against human LoVo cells assessed as reduction in cell viability incubated for 120 hrs by MTT assay; assay type: functional, cell-based
[6] = Cell cycle arrest in human ALL5 cells assessed as accumulation in G1 phase at 5 times of antiproliferative IC50 incubated for 48 hrs by propidium iodide based flow cytometry (reference value: 67.4 %); assay type: functional
[7] = Cell cycle arrest in human ALL5 cells assessed as accumulation in S phase at 5 times of antiproliferative IC50 incubated for 48 hrs by propidium iodide based flow cytometry (reference value: 10.3 %); assay type: functional
[8] = Selectivity index, ratio of IC50 of mouse BALB/3T3 cells to IC50 of human MCF7 cells; assay type: toxicity; details: BALB/3T3 cells versus MCF7 cells, read-out: Ratio IC50
[9] = Cell cycle arrest in human ALL5 cells assessed as accumulation in G1 phase at 5 times of antiproliferative IC50 incubated for 72 hrs by propidium iodide based flow cytometry (reference value: 59.7 %); assay type: functional
MCF7 [10] = assay: Cell cycle arrest in human MCF7 cells assessed as accumulation in G2 phase at 5 times of antiproliferative IC50 incubated for 24 hrs by propidium iodide based flow cytometry (reference value: 22.4 %); assay type: functional
[11] = Cell cycle arrest in human ALL5 cells assessed as accumulation in G2 phase at 5 times of antiproliferative IC50 incubated for 48 hrs by propidium iodide based flow cytometry (reference value: 11.2 %); assay type: functional
[12] = Selectivity index, ratio of IC50 of mouse BALB/3T3 cells to IC50 of human LoVo cells; assay type: toxicity; details: BALB/3T3 cells versus LoVo cells, read-out: Ratio IC50
MCF7 [13] = assay: Cell cycle arrest in human MCF7 cells assessed as accumulation in S phase at 5 times of antiproliferative IC50 incubated for 48 hrs by propidium iodide based flow cytometry (reference value: 34 %); assay type: functional
[14] = Antiproliferative activity against human LoVo/DX cells assessed as reduction in cell viability incubated for 120 hrs by MTT assay; assay type: functional, cell-based
MCF7 [15] = assay: Cell cycle arrest in human MCF7 cells assessed as accumulation in G1 phase at 5 times of antiproliferative IC50 incubated for 48 hrs by propidium iodide based flow cytometry (reference value: 40.8 %); assay type: functional
[16] = Cell cycle arrest in human ALL5 cells assessed as accumulation in subG1 phase at 5 times of antiproliferative IC50 incubated for 24 hrs by propidium iodide based flow cytometry (reference value: 10.5 %); assay type: functional
MCF7 [17] = assay: Cell cycle arrest in human MCF7 cells assessed as accumulation in S phase at 5 times of antiproliferative IC50 incubated for 72 hrs by propidium iodide based flow cytometry (reference value: 19.8 %); assay type: functional
[18] = Cell cycle arrest in human ALL5 cells assessed as accumulation in subG1 phase at 5 times of antiproliferative IC50 incubated for 48 hrs by propidium iodide based flow cytometry (reference value: 11 %); assay type: functional
MCF7 [19] = assay: Cell cycle arrest in human MCF7 cells assessed as accumulation in subG1 phase at 5 times of antiproliferative IC50 incubated for 72 hrs by propidium iodide based flow cytometry (reference value: 3.59 %); assay type: functional
MCF7 [20] = assay: Cell cycle arrest in human MCF7 cells assessed as accumulation in S phase at 5 times of antiproliferative IC50 incubated for 24 hrs by propidium iodide based flow cytometry (reference value: 19.9 %); assay type: functional
[21] = Selectivity index, ratio of IC50 of mouse BALB/3T3 cells to IC50 of human A549 cells
Homo sapiens [22] = species on record: Homo sapiens; assay: Induction of cell death in human ALL5 cells assessed as decrease in 4 N DNA at 5 times of antiproliferative IC50 incubated for 72 hrs by propidium iodide based flow cytometry; assay type: functional
MCF7 [23] = assay: Cell cycle arrest in human MCF7 cells assessed as accumulation in subG1 phase at 5 times of antiproliferative IC50 incubated for 24 hrs by propidium iodide based flow cytometry (reference value: 7.79 %); assay type: functional
[24] = Cell cycle arrest in human ALL5 cells assessed as accumulation in G1 phase at 5 times of antiproliferative IC50 incubated for 24 hrs by propidium iodide based flow cytometry (reference value: 68.1 %); assay type: functional
[25] = Selectivity index, ratio of IC50 of mouse BALB/3T3 cells to IC50 of human LoVo/DX cells; assay type: toxicity; details: BALB/3T3 cells versus LoVo/DX cells, read-out: Ratio IC50
MCF7 [26] = assay: Cell cycle arrest in human MCF7 cells assessed as accumulation in G2 phase at 5 times of antiproliferative IC50 incubated for 72 hrs by propidium iodide based flow cytometry (reference value: 18.6 %); assay type: functional
Homo sapiens [27] = species on record: Homo sapiens; assay: Induction of cell cycle arrest in human ALL5 cells assessed as increase in 4 N DNA at 5 times of antiproliferative IC50 incubated for 24 hrs by propidium iodide based flow cytometry; assay type: functional
[28] = Resistance index, ratio of IC50 of human LoVo/DX cells to IC50 of human LoVo cells; assay type: functional
BALB/3T3 = assay: Antiproliferative activity against mouse BALB/3T3 cells assessed as reduction in cell viability incubated for 120 hrs by MTT assay; assay type: cell-based; details: BALB/3T3, 120 h
Homo sapiens [29] = species on record: Homo sapiens; assay: Induction of cell cycle arrest in human ALL5 cells assessed as increase in 4 N DNA at 5 times of antiproliferative IC50 incubated for 48 hrs by propidium iodide based flow cytometry; assay type: functional
[30] = Cell cycle arrest in human ALL5 cells assessed as accumulation in G2 phase at 5 times of antiproliferative IC50 incubated for 24 hrs by propidium iodide based flow cytometry (reference value: 10.6 %); assay type: functional
[31] = Selectivity index, ratio of IC50 of mouse BALB/3T3 cells to IC50 of human ALL5 cells
[32] = Cell cycle arrest in human ALL5 cells assessed as accumulation in S phase at 5 times of antiproliferative IC50 incubated for 24 hrs by propidium iodide based flow cytometry (reference value: […]); assay type: functional
A549 = assay: Antiproliferative activity against human A549 cells assessed as reduction in cell viability incubated for 120 hrs by MTT assay; assay type: functional, cell-based; details: A549, 120 h
MCF7 [33] = assay: Cell cycle arrest in human MCF7 cells assessed as accumulation in subG1 phase at 5 times of antiproliferative IC50 incubated for 48 hrs by propidium iodide based flow cytometry (reference value: 9.19 %); assay type: functional
MCF7 [34] = assay: Cell cycle arrest in human MCF7 cells assessed as accumulation in G1 phase at 5 times of antiproliferative IC50 incubated for 24 hrs by propidium iodide based flow cytometry (reference value: 49.9 %); assay type: functional
MCF7 [35] = assay: Antiproliferative activity against human MCF7 cells assessed as reduction in cell viability incubated for 120 hrs by MTT assay; assay type: functional, cell-based; details: MCF7, 120 h
MCF7 [36] = assay: Cell cycle arrest in human MCF7 cells assessed as accumulation in G2 phase at 5 times of antiproliferative IC50 incubated for 48 hrs by propidium iodide based flow cytometry (reference value: 16 %); assay type: functional

SMILES | IC50 [1] [nM] | Activity [2] [%] | Activity (MCF7 [3]) [%] | Activity [4] [%] | Activity [5] [%] | IC50 (LoVo) [nM] | Activity [6] [%] | Activity [7] [%] | selectivity ratio [8] | selectivity ratio [12] | IC50 [14] [nM] | Ratio IC50 [21] | Activity (Homo sapiens [22]) | selectivity ratio [25] | Activity (Homo sapiens [27]) | Ratio IC50 [28] | IC50 (BALB/3T3) [nM] | Ratio IC50 [31] | IC50 (A549) [nM] | IC50 (MCF7 [35]) [nM] | other results
COc1c(Br)c2c(c(OC)c1OC)-c1ccc(SC)c(=O)cc1[C@@H](NC(=O)C(C)C)CC2 | 8.6 | 22.5 | 9.6 | 7.59 | 46.9 | 7 | 32.1 | 15.9 | 1.8 | 2.9 | 75.9 | 2 | Active | 0.3 | Active | 10.8 | 20.4 | 2.4 | 10.2 | 11.5 | Activity [9]: 23%; Activity (MCF7 [10]): 78%; Activity [11]: 20%; Activity (MCF7 [13]): 10.6%; Activity (MCF7 [15]): 11.4%; Activity [16]: 18%; Activity (MCF7 [17]): 15.4%; Activity [18]: 31.9%; Activity (MCF7 [19]): 17.5%; Activity (MCF7 [20]): 5.16%; Activity (MCF7 [23]): 4.89%; Activity [24]: 52.5%; Activity (MCF7 [26]): 57.5%; Activity (Homo sapiens [29]): Active; Activity [30]: 15.8%; Activity [32]: 13.7%; Activity (MCF7 [33]): 11.8%; Activity (MCF7 [34]): 12%; Activity (MCF7 [36]): 66.3%
COc1c(Br)c2c(c(OC)c1OC)-c1ccc(SC)c(=O)cc1[C@@H](NC(=O)CCCCl)CC2 | 14 |  |  |  |  | 12 |  |  | 1.3 | 5.3 | 266 | 1.2 | Active | 0.2 | Active | 22.2 | 64.1 | 4.6 | 53.4 | 48.9 | Activity (Homo sapiens [29]): Active
COc1c(Br)c2c(c(OC)c1OC)-c1ccc(SC)c(=O)cc1[C@@H](NC(=O)c1ccccc1)CC2 | 5.8 | 19.7 | 13 | 7.51 | 50.6 | 6.6 | 33.8 | 16 | 1.5 | 2.6 | 47.9 | 1.8 | Active | 0.4 | Active | 7.3 | 17.4 | 3 | 9.6 | 11.4 | Activity [9]: 22.1%; Activity (MCF7 [10]): 75%; Activity [11]: 25.4%; Activity (MCF7 [13]): 7.39%; Activity (MCF7 [15]): 14.3%; Activity [16]: 16.5%; Activity (MCF7 [17]): 9.81%; Activity [18]: 24.7%; Activity (MCF7 [19]): 15.6%; Activity (MCF7 [20]): 7.85%; Activity (MCF7 [23]): 6.17%; Activity [24]: 52%; Activity (MCF7 [26]): 61.6%; Activity [30]: 16.9%; Activity [32]: 14.7%; Activity (MCF7 [33]): 10%; Activity (MCF7 [34]): 11%; Activity (MCF7 [36]): 68.3%
COc1c(Br)c2c(c(OC)c1OC)-c1ccc(SC)c(=O)cc1[C@@H](NC(C)=O)CC2 | 5.4 | 24.2 | 15.5 | 9.83 | 37.2 | 13.6 | 33.4 | 19.4 | 7 | 7.6 | 135 | 10.2 | Active | 0.8 | Active | 9.6 | 103 | 19.1 | 10.1 | 14.8 | Activity [9]: 28.8%; Activity (MCF7 [10]): 72.4%; Activity [11]: 16.6%; Activity (MCF7 [13]): 7.31%; Activity (MCF7 [15]): 14.6%; Activity [16]: 14.3%; Activity (MCF7 [17]): 6.88%; Activity [18]: 30.5%; Activity (MCF7 [19]): 13.1%; Activity (MCF7 [20]): 6.62%; Activity (MCF7 [23]): 7.93%; Activity [24]: 53.2%; Activity (MCF7 [26]): 64.5%; Activity [30]: 17.7%; Activity [32]: 14.8%; Activity (MCF7 [33]): 12%; Activity (MCF7 [34]): 13%; Activity (MCF7 [36]): 66%
COc1c(Br)c2c(c(OC)c1OC)-c1ccc(SC)c(=O)cc1[C@@H](N)CC2 | 91.4 |  |  |  |  | 125 |  |  | 7.1 | 10.1 | 700 | 11 | Active | 1.8 | Active | 5.6 | 1260 | 13.8 | 115 | 178 | Activity (Homo sapiens [29]): Active
COc1c(Br)c2c(c(OC)c1OC)-c1ccc(OC)c(=O)cc1[C@@H](NC(C)=O)CC2 | 5.9 | 22.2 | 13.2 | 11.2 | 39.7 | 83.6 | 35 | 20 | 5.3 | 1.7 | 1550 | 1.4 | Active | 0.1 |  | 18.7 | 142 | 24.1 | 104 | 26.6 | Activity [9]: 26.9%; Activity (MCF7 [10]): 74.9%; Activity [11]: 18.6%; Activity (MCF7 [13]): 14.6%; Activity (MCF7 [15]): 12.5%; Activity [16]: 17.1%; Activity (MCF7 [17]): 14.3%; Activity [18]: 26.4%; Activity (MCF7 [19]): 16.4%; Activity (MCF7 [20]): 7.97%; Activity (MCF7 [23]): 7.37%; Activity [24]: 51.2%; Activity (MCF7 [26]): 56.1%; Activity (Homo sapiens [29]): Active; Activity [30]: 16.9%; Activity [32]: 14.8%; Activity (MCF7 [33]): 12.1%; Activity (MCF7 [34]): 9.79%; Activity (MCF7 [36]): 60.8%

From ChEMBL document CHEMBL4359931, “Synthesis, biological evaluation and molecular docking studies of new amides of 4-bromothiocolchicine as anticancer agents” (Bioorg Med Chem, 2019)
